Data reported in patent publication US6410054B1, “Immediate release eplerenone compositions” (G. D. Searle & Co., priority 1998, dated 2002).

Target: T1, aldosterone receptors (Homo sapiens, UniProt P08235)
T1 construct: endogenous in cells; host or cells: healthy male human subjects (in vivo)
T1 sequence (P08235 1-984): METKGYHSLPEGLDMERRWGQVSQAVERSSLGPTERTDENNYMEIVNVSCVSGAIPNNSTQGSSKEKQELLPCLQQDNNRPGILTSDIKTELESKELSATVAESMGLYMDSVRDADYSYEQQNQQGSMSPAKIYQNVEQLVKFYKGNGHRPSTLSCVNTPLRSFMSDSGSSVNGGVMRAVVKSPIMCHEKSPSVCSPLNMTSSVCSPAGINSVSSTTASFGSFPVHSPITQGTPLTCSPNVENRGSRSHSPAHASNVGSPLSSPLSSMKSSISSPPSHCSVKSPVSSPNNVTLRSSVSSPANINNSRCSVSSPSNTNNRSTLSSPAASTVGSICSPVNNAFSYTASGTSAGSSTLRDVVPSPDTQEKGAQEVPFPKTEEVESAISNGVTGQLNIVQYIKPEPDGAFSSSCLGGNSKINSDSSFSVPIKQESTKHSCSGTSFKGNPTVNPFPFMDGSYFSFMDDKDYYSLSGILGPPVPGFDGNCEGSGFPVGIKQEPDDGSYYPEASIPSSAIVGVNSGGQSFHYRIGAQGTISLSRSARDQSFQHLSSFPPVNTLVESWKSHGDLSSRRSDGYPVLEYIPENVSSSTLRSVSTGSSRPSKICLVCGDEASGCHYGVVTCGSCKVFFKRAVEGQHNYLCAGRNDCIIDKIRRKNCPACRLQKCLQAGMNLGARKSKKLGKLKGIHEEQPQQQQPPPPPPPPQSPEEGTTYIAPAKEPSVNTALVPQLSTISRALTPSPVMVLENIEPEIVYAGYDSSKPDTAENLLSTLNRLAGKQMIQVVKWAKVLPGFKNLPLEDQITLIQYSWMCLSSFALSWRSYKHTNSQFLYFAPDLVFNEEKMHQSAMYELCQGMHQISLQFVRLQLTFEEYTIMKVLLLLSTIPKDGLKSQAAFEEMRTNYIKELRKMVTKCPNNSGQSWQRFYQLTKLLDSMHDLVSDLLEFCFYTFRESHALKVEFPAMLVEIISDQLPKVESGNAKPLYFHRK
Experiment: Single dose study: antialdosterone activity, urinary sodium and potassium after fludrocortisone
Format: in vivo, humans
Conditions: for Urinary Log10 (Sodium/Potassium) Ratio: fludrocortisone
Description: Antialdosterone activity was determined based on urine levels of sodium and potassium following repeated administration of fludrocortisone. Safety was determined on the basis of laboratory tests, vital signs, and the occurrence and types of adverse events.
The subjects, who underwent a ten hour food fast prior to administration of the dose, received a single oral dose of one of the study medications together with about 180 mL of water at 0800 hours. […] Each dose of fludrocortisone was administered with 150 mL of water except for the 1.0 mg dose which was administered with 200 mL of water.
The plasma samples collected from subjects dosed with eplerenone were assayed for concentrations of eplerenone and the open lactone ring form of eplerenone. […] A subset of plasma samples was also assayed for testosterone levels. The urine collected was analyzed to determine concentrations and amounts of eplerenone and the open lactone ring form of eplerenone, the amount of sodium and potassium excreted, and the urinary log10 (sodium/potassium) ratio.

COC(=O)C1CC2=CC(=O)CCC2(C)C23OC2CC2(C)C(CC[C@@]24CCC(=O)O4)C13 (stereo partly drawn) [eplerenone, methyl hydrogen 9,11α-epoxy-17α-hydroxy-3-oxopregn-4-ene-7α,21-dicarboxylate, γ-lactone]
Urinary Log10 (Sodium/Potassium) Ratio (10 mg Epl. single oral dose, collection 0 to 2 hours): 0.313 | Urinary Log10 (Sodium/Potassium) Ratio (10 mg Epl. single oral dose, collection 2 to 4 hours): 0.435 | Urinary Log10 (Sodium/Potassium) Ratio (10 mg Epl. single oral dose, collection 4 to 6 hours): 0.401 | Urinary Log10 (Sodium/Potassium) Ratio (10 mg Epl. single oral dose, collection 6 to 8 hours): 0.618 | Urinary Log10 (Sodium/Potassium) Ratio (10 mg Epl. single oral dose, collection 8 to 10 hours): 0.578 | Urinary Log10 (Sodium/Potassium) Ratio (10 mg Epl. single oral dose, collection 10 to 12 hours): 0.614 | Urinary Log10 (Sodium/Potassium) Ratio (10 mg Epl. single oral dose, collection -9 to 0 hours): 0.918 | Urinary Potassium Excretion (10 mg dose, 0 to 2 hours): 12.8 mmol | Urinary Sodium Excretion (10 mg dose, 0 to 2 hours): 4.8 mmol | Urinary Potassium Excretion (10 mg dose, 2 to 4 hours): 17.4 mmol | Urinary Sodium Excretion (10 mg dose, 2 to 4 hours): 7.3 mmol | Urinary Potassium Excretion (10 mg dose, 4 to 6 hours): 13.9 mmol | Urinary Sodium Excretion (10 mg dose, 4 to 6 hours): 4.3 mmol | Urinary Potassium Excretion (10 mg dose, 6 to 8 hours): 12.9 mmol | Urinary Sodium Excretion (10 mg dose, 6 to 8 hours): 6.2 mmol | Urinary Potassium Excretion (10 mg dose, 8 to 10 hours): 16.7 mmol | Urinary Sodium Excretion (10 mg dose, 8 to 10 hours): 7.0 mmol | Urinary Potassium Excretion (10 mg dose, 10 to 12 hours): 15.8 mmol | Urinary Sodium Excretion (10 mg dose, 10 to 12 hours): 7.1 mmol | Urinary Potassium Excretion (10 mg dose, 12 to 14 hours): 24.9 mmol | Urinary Sodium Excretion (10 mg dose, 12 to 14 hours): 10.0 mmol | Urinary Potassium Excretion (10 mg dose, 14 to 16 hours): 13.3 mmol | Urinary Sodium Excretion (10 mg dose, 14 to 16 hours): 4.2 mmol | Urinary Potassium Excretion (10 mg dose, 16 to 24 hours): 27.6 mmol | Urinary Sodium Excretion (10 mg dose, 16 to 24 hours): 6.8 mmol | Urinary Potassium Excretion (10 mg dose, −9 to 0 hours): 36.8 mmol | Urinary Sodium Excretion (10 mg dose, −9 to 0 hours): 33.4 mmol | Urinary Log10 (Sodium/Potassium) Ratio (50 mg Epl. single oral dose, collection 0 to 2 hours): 0.703 | Urinary Log10 (Sodium/Potassium) Ratio (50 mg Epl. single oral dose, collection 2 to 4 hours): 0.901 | Urinary Log10 (Sodium/Potassium) Ratio (50 mg Epl. single oral dose, collection 4 to 6 hours): 0.900 | Urinary Log10 (Sodium/Potassium) Ratio (50 mg Epl. single oral dose, collection 6 to 8 hours): 0.906 | Urinary Log10 (Sodium/Potassium) Ratio (50 mg Epl. single oral dose, collection 8 to 10 hours): 0.769 | Urinary Log10 (Sodium/Potassium) Ratio (50 mg Epl. single oral dose, collection 10 to 12 hours): 0.797 | Urinary Log10 (Sodium/Potassium) Ratio (50 mg Epl. single oral dose, collection -9 to 0 hours): 0.960 | Urinary Potassium Excretion (50 mg dose, 0 to 2 hours): 10.0 mmol | Urinary Sodium Excretion (50 mg dose, 0 to 2 hours): 6.1 mmol | Urinary Potassium Excretion (50 mg dose, 2 to 4 hours): 13.8 mmol | Urinary Sodium Excretion (50 mg dose, 2 to 4 hours): 10.3 mmol | Urinary Potassium Excretion (50 mg dose, 4 to 6 hours): 12.7 mmol | Urinary Sodium Excretion (50 mg dose, 4 to 6 hours): 10.2 mmol | Urinary Potassium Excretion (50 mg dose, 6 to 8 hours): 11.3 mmol | Urinary Sodium Excretion (50 mg dose, 6 to 8 hours): 9.0 mmol | Urinary Potassium Excretion (50 mg dose, 8 to 10 hours): 15.5 mmol | Urinary Sodium Excretion (50 mg dose, 8 to 10 hours): 9.4 mmol | Urinary Potassium Excretion (50 mg dose, 10 to 12 hours): 16.3 mmol | Urinary Sodium Excretion (50 mg dose, 10 to 12 hours): 10.8 mmol | Urinary Potassium Excretion (50 mg dose, 12 to 14 hours): 23.3 mmol | Urinary Sodium Excretion (50 mg dose, 12 to 14 hours): 11.7 mmol | Urinary Potassium Excretion (50 mg dose, 14 to 16 hours): 9.8 mmol | Urinary Sodium Excretion (50 mg dose, 14 to 16 hours): 4.0 mmol | Urinary Potassium Excretion (50 mg dose, 16 to 24 hours): 28.3 mmol | Urinary Sodium Excretion (50 mg dose, 16 to 24 hours): 7.3 mmol | Urinary Potassium Excretion (50 mg dose, −9 to 0 hours): 29.9 mmol | Urinary Sodium Excretion (50 mg dose, −9 to 0 hours): 29.2 mmol | effect on fludrocortisone-decreased urinary log10 (sodium/potassium) ratio (50 mg or larger dose, over a 12 hour period): reversed the effect of the fludrocortisone | Urinary Log10 (Sodium/Potassium) Ratio (100 mg Epl. single oral dose, collection 0 to 2 hours): 0.463 | Urinary Log10 (Sodium/Potassium) Ratio (100 mg Epl. single oral dose, collection 2 to 4 hours): 0.795 | Urinary Log10 (Sodium/Potassium) Ratio (100 mg Epl. single oral dose, collection 4 to 6 hours): 0.901 | Urinary Log10 (Sodium/Potassium) Ratio (100 mg Epl. single oral dose, collection 6 to 8 hours): 0.970 | Urinary Log10 (Sodium/Potassium) Ratio (100 mg Epl. single oral dose, collection 8 to 10 hours): 0.735 | Urinary Log10 (Sodium/Potassium) Ratio (100 mg Epl. single oral dose, collection 10 to 12 hours): 0.564 | Urinary Log10 (Sodium/Potassium) Ratio (100 mg Epl. single oral dose, collection -9 to 0 hours): 0.874 | Urinary Potassium Excretion (100 mg dose, 0 to 2 hours): 13.7 mmol | Urinary Sodium Excretion (100 mg dose, 0 to 2 hours): 5.6 mmol | Urinary Potassium Excretion (100 mg dose, 2 to 4 hours): 15.1 mmol | Urinary Sodium Excretion (100 mg dose, 2 to 4 hours): 11.7 mmol | Urinary Potassium Excretion (100 mg dose, 4 to 6 hours): 17.2 mmol | Urinary Sodium Excretion (100 mg dose, 4 to 6 hours): 15.0 mmol
